Test results from patent US11225505B2, “Antimicrobial polymyxin derivative compounds” (MONASH UNIVERSITY, priority 2015, dated 2022).
≈ marks a conversion by molar mass, not a printed value. Where two headings read alike, the source gives them in different places. Where a SMILES comes first, the peptide text is derived from it. Bridges are numbered along the chain shown (N, C = ends). [ ]: non-standard residue; d: D form. The star is where a group is joined. Indazole3carbonyl = O=C(c1n[nH]c2ccccc12)*; X44 = O=C(c1cc(-c2ccccc2)no1)*; X4 = O=C(c1cncc(C(F)(F)F)c1)*; X22 = Cn1c(C(=O)*)cc2ccccc21; X46 = O=C(c1cc(Br)nc(Br)c1)*; X30 = O=C(c1ccc(Cl)cn1)*; X33 = O=C(c1cncc(Br)c1)*; Dab = NCC[C@H](N)C(=O)O; Abu = CC[C@H](N)C(=O)O; Dap = NC[C@H](N)C(=O)O

Assays:
Format in all cases: cell-based
[1] = system: Acinetobacter baumannii FADDI-AB030; test: microbe, parasite or virus in culture
Protocol: MICs of the lipopeptides (trifluoroacetic acid salt, TFA) were determined by broth microdilution in cation-adjusted Mueller-Hinton broth (CAMHB) (Oxoid Australia, Thebarton, SA, Australia) according to the Clinical and Laboratory Standards Institute protocol (Clinical and Laboratory Standards Institute, Performance standards for antimicrobial susceptibility testing; twentyforth informational supplement M100-S24. Wayne, Pa., 2014). Polymyxin B sulphate was employed as the control. […] The following isolates were examined: Pseudomonas aeruginosa ATCC 27853, Pseudomonas aeruginosa FADDI-PA022*, Pseudomonas aeruginosa FADDI-PA01*, Pseudomonas aeruginosa FADDI-PA038*, Acinetobacter baumannii FADDI-AB034*, Acinetobacter baumannii ATCC 17978, Acinetobacter baumannii FADDI-AB030*, Klebsiella pneumoniae FADDI-KP032, Klebsiella pneumoniae FADDI-KP022*, Klebsiella pneumoniae Kp BM1*, Enterobacter cloacae FADDI-EC006, Enterobacter cloacae FADDI-EC001, and Enterobacter cloacae FADDI-EC003 (* Multi drug-resistant clinical isolates, § New Delhi Metallo-beta-lactamase-1 (NDM-1) producing). The results are illustrated in Tables 4 and 5. […]

[2] = system: Klebsiella pneumoniae FADDI-KP032
Protocol: (§1) MICs of the lipopeptides (trifluoroacetic acid salt, TFA) were determined by broth microdilution in cation-adjusted Mueller-Hinton broth (CAMHB) (Oxoid Australia, Thebarton, SA, Australia) according to the Clinical and Laboratory Standards Institute protocol (Clinical and Laboratory Standards Institute, Performance standards for antimicrobial susceptibility testing; twentyforth informational supplement M100-S24. Wayne, Pa., 2014). Polymyxin B sulphate was employed as the control. Antimicrobial activity of Compounds 1-104 against polymyxin-susceptible Gram-negative bacteria was examined. The following isolates were examined: Pseudomonas aeruginosa ATCC 27853, Pseudomonas aeruginosa FADDI-PA022*, Pseudomonas aeruginosa FADDI-PA01*, Pseudomonas aeruginosa FADDI-PA038*, Acinetobacter baumannii FADDI-AB034*, Acinetobacter baumannii ATCC 17978, Acinetobacter baumannii FADDI-AB030*, Klebsiella pneumoniae FADDI-KP032, Klebsiella pneumoniae FADDI-KP022*, Klebsiella pneumoniae Kp BM1*, Enterobacter cloacae FADDI-EC006, Enterobacter cloacae FADDI-EC001, and Enterobacter cloacae FADDI-EC003 (* Multi drug-resistant clinical isolates, § New Delhi Metallo-beta-lactamase-1 (NDM-1) producing). The results are illustrated in Tables 4 and 5.

[3] = system: Enterobacter cloacae FADDI-EC001
Protocol: as §1

[4] = system: Pseudomonas aeruginosa FADDI-PA022
Protocol: as §1

[5] = system: Pseudomonas aeruginosa FADDI-PA01
Protocol: as §1

[6] = system: Enterobacter cloacae FADDI-EC006
Protocol: as §1

[7] = system: Acinetobacter baumannii ATCC 17978
Protocol: as §1

[8] = system: Pseudomonas aeruginosa FADDI-PA038
Protocol: as §1

[9] = system: Enterobacter cloacae FADDI-EC003
Protocol: as §1

[10] = system: Klebsiella pneumoniae FADDI-KP022
Protocol: as §1

[11] = system: Klebsiella pneumoniae Kp BM1
Protocol: as §1

[12] = system: Acinetobacter baumannii FADDI-AB034
Protocol: as §1

[13] = system: Pseudomonas aeruginosa ATCC 27853
Protocol: as §1

SMILES | Minimum inhibitory concentration ([1]; FADDI-AB030) [µg/mL] | Minimum inhibitory concentration ([2]; FADDI-KP032) [µg/mL] | Minimum inhibitory concentration ([3]; FADDI-EC001) [µg/mL] | Minimum inhibitory concentration ([4]; FADDI-PA022) [µg/mL] | Minimum inhibitory concentration ([5]; FADDI-) [µg/mL] | Minimum inhibitory concentration ([6]; FADDI-EC006) [µg/mL] | Minimum inhibitory concentration ([7]; ATCC 17978) [µg/mL] | Minimum inhibitory concentration ([8]; FADDI-PA038) [µg/mL] | Minimum inhibitory concentration ([9]; FADDI-EC003) [µg/mL] | Minimum inhibitory concentration ([10]; FADDI-KP022) [µg/mL] | Minimum inhibitory concentration ([11]; Kp BM1) [µg/mL] | Minimum inhibitory concentration ([12]; FADDI-AB034) [µg/mL] | Minimum inhibitory concentration ([13]; ATCC 27853) [µg/mL] | other results
CC[C@@H]1NC(=O)[C@@H](CC(C)C)NC(=O)[C@H](CCN)NC(=O)[C@@H](NC(=O)[C@H](CN)NC(=O)[C@@H](NC(=O)[C@H](CCN)NC(=O)c2cc3ccccc3n2C)[C@@H](C)O)CCNC(=O)[C@H]([C@@H](C)O)NC(=O)[C@H](CCN)NC(=O)[C@H](CCN)NC1=O [Compound 48] (X22-[Dab]T[Dap][Dab][Dab][dL][Abu][Dab][Dab]T; lactam 4-C) | <0.125 | <0.125 | <0.125 | 0.25 (≈ 0.218 µM) | <0.125 | 0.25 (≈ 0.218 µM) | <0.125 | <0.125 | 0.25 (≈ 0.218 µM) | <0.125 | <0.125 | 0.25 (≈ 0.218 µM) | 0.25 (≈ 0.218 µM) | –
CC[C@@H]1NC(=O)[C@@H](CC(C)C)NC(=O)[C@H](CCN)NC(=O)[C@@H](NC(=O)[C@H](CN)NC(=O)[C@@H](NC(=O)[C@H](CCN)NC(=O)c2ccc(Cl)cn2)[C@@H](C)O)CCNC(=O)[C@H]([C@@H](C)O)NC(=O)[C@H](CCN)NC(=O)[C@H](CCN)NC1=O [Compound 37] (X30-[Dab]T[Dap][Dab][Dab][dL][Abu][Dab][Dab]T; lactam 4-C) | 0.5 (≈ 0.444 µM) | <0.125 | 0.25 (≈ 0.222 µM) | 0.25 (≈ 0.222 µM) | 0.25 (≈ 0.222 µM) | 0.5 (≈ 0.444 µM) | 2 (≈ 1.78 µM) | 0.5 (≈ 0.444 µM) | 0.25 (≈ 0.222 µM) | <0.125 | <0.125 | 1 (≈ 0.888 µM) | 0.25 (≈ 0.222 µM) | –
CC[C@@H]1NC(=O)[C@@H](CC(C)C)NC(=O)[C@H](CCN)NC(=O)[C@@H](NC(=O)[C@H](CN)NC(=O)[C@@H](NC(=O)[C@H](CCN)NC(=O)c2cc(Br)nc(Br)c2)[C@@H](C)O)CCNC(=O)[C@H]([C@@H](C)O)NC(=O)[C@H](CCN)NC(=O)[C@H](CCN)NC1=O [Compound 28] (X46-[Dab]T[Dap][Dab][Dab][dL][Abu][Dab][Dab]T; lactam 4-C) | 0.25 (≈ 0.2 µM) | 0.25 (≈ 0.2 µM) | 0.25 (≈ 0.2 µM) | 0.25 (≈ 0.2 µM) | 1 (≈ 0.8 µM) | <0.125 | 0.25 (≈ 0.2 µM) | 1 (≈ 0.8 µM) | 0.25 (≈ 0.2 µM) | <0.125 | 0.25 (≈ 0.2 µM) | 0.25 (≈ 0.2 µM) | 0.25 (≈ 0.2 µM) | –
CC[C@@H]1NC(=O)[C@@H](CC(C)C)NC(=O)[C@H](CCN)NC(=O)[C@@H](NC(=O)[C@H](CN)NC(=O)[C@@H](NC(=O)[C@H](CCN)NC(=O)c2cncc(Br)c2)[C@@H](C)O)CCNC(=O)[C@H]([C@@H](C)O)NC(=O)[C@H](CCN)NC(=O)[C@H](CCN)NC1=O [Compound 23] (X33-[Dab]T[Dap][Dab][Dab][dL][Abu][Dab][Dab]T; lactam 4-C) | 0.5 (≈ 0.427 µM) | 0.5 (≈ 0.427 µM) | 0.5 (≈ 0.427 µM) | 0.25 (≈ 0.213 µM) | 0.5 (≈ 0.427 µM) | 4 (≈ 3.42 µM) | 2 (≈ 1.71 µM) | 0.5 (≈ 0.427 µM) | 0.5 (≈ 0.427 µM) | <0.125 | 0.25 (≈ 0.213 µM) | 0.5 (≈ 0.427 µM) | 0.25 (≈ 0.213 µM) | –
CC[C@@H]1NC(=O)[C@@H](CC(C)C)NC(=O)[C@H](CCN)NC(=O)[C@@H](NC(=O)[C@H](CN)NC(=O)[C@@H](NC(=O)[C@H](CCN)NC(=O)c2cc(-c3ccccc3)no2)[C@@H](C)O)CCNC(=O)[C@H]([C@@H](C)O)NC(=O)[C@H](CCN)NC(=O)[C@H](CCN)NC1=O [Compound 87] (X44-[Dab]T[Dap][Dab][Dab][dL][Abu][Dab][Dab]T; lactam 4-C) | 0.5 (≈ 0.432 µM) | 0.25 (≈ 0.216 µM) | <0.125 | 0.5 (≈ 0.432 µM) | 0.5 (≈ 0.432 µM) | 0.25 (≈ 0.216 µM) | 0.5 (≈ 0.432 µM) | 1 (≈ 0.863 µM) | <0.125 | <0.125 | 0.5 (≈ 0.432 µM) | 0.5 (≈ 0.432 µM) | 1 (≈ 0.863 µM) | –
CC[C@@H]1NC(=O)[C@@H](CC(C)C)NC(=O)[C@H](CCN)NC(=O)[C@@H](NC(=O)[C@H](CN)NC(=O)[C@@H](NC(=O)[C@H](CCN)NC(=O)c2n[nH]c3ccccc23)[C@@H](C)O)CCNC(=O)[C@H]([C@@H](C)O)NC(=O)[C@H](CCN)NC(=O)[C@H](CCN)NC1=O [Compound 54] (Indazole3carbonyl-[Dab]T[Dap][Dab][Dab][dL][Abu][Dab][Dab]T; lactam 4-C) | – | – | – | – | – | – | – | – | – | – | – | – | – | Minimum inhibitory concentration ([1]; A. baumannii FADDI-AB030, CAMHB broth microdilution): 0.25 µg/mL (≈ 0.221 µM); Minimum inhibitory concentration ([2]; K. pneumoniae FADDI-KP032, CAMHB broth microdilution): <0.125 µg/mL; Minimum inhibitory concentration ([3]; E. cloacae FADDI-EC001, CAMHB broth microdilution): <0.125 µg/mL; Minimum inhibitory concentration ([4]; P. aeruginosa FADDI-PA022, CAMHB broth microdilution): 0.5 µg/mL (≈ 0.442 µM); Minimum inhibitory concentration ([5]; P. aeruginosa FADDI-PA01, CAMHB broth microdilution): 0.25 µg/mL (≈ 0.221 µM); Minimum inhibitory concentration ([6]; E. cloacae FADDI-EC006, CAMHB broth microdilution): 0.5 µg/mL (≈ 0.442 µM); Minimum inhibitory concentration ([7]; A. baumannii ATCC 17978, CAMHB broth microdilution): 1 µg/mL (≈ 0.884 µM); Minimum inhibitory concentration ([8]; P. aeruginosa FADDI-PA038, CAMHB broth microdilution): 0.25 µg/mL (≈ 0.221 µM); Minimum inhibitory concentration ([9]; E. cloacae FADDI-EC003, CAMHB broth microdilution): 0.5 µg/mL (≈ 0.442 µM); Minimum inhibitory concentration ([10]; K. pneumoniae FADDI-KP022, CAMHB broth microdilution): <0.125 µg/mL; Minimum inhibitory concentration ([11]; K. pneumoniae Kp BM1, CAMHB broth microdilution): <0.125 µg/mL; Minimum inhibitory concentration ([12]; A. baumannii FADDI-AB034, CAMHB broth microdilution): 0.5 µg/mL (≈ 0.442 µM); Minimum inhibitory concentration ([13]; P. aeruginosa ATCC 27853, CAMHB broth microdilution): 0.5 µg/mL (≈ 0.442 µM)
CC[C@@H]1NC(=O)[C@@H](CC(C)C)NC(=O)[C@H](CCN)NC(=O)[C@@H](NC(=O)[C@H](CN)NC(=O)[C@@H](NC(=O)[C@H](CCN)NC(=O)c2cncc(C(F)(F)F)c2)[C@@H](C)O)CCNC(=O)[C@H]([C@@H](C)O)NC(=O)[C@H](CCN)NC(=O)[C@H](CCN)NC1=O [Compound 20] (X4-[Dab]T[Dap][Dab][Dab][dL][Abu][Dab][Dab]T; lactam 4-C) | 0.5 (≈ 0.431 µM) | 0.5 (≈ 0.431 µM) | 0.5 (≈ 0.431 µM) | 0.5 (≈ 0.431 µM) | 0.5 (≈ 0.431 µM) | 0.5 (≈ 0.431 µM) | 2 (≈ 1.72 µM) | 0.5 (≈ 0.431 µM) | 4 (≈ 3.45 µM) | <0.125 | 0.25 (≈ 0.215 µM) | 0.5 (≈ 0.431 µM) | 0.5 (≈ 0.431 µM) | –
